From ChEMBL document CHEMBL3997836, “Leupeptazin, a highly modified tripeptide isolated from cultures of a Streptomyces sp. inhibits cathepsin K” (Bioorg Med Chem Lett, 2017)

Biological target: T1, Cathepsin K (Homo sapiens, UniProt P43235)
T1 sequence (P43235 whole entry): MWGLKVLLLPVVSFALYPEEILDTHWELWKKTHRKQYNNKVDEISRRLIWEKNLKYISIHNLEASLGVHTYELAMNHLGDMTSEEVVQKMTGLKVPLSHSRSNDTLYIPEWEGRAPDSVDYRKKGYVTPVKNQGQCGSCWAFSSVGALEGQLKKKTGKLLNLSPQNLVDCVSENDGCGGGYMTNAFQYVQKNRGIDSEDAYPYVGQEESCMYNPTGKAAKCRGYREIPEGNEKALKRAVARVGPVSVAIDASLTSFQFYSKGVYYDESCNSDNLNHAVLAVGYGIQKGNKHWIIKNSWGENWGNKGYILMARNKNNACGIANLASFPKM
Assay: Competitive inhibition of recombinant human cathepsin K expressed in Pichia pastoris using Z-FR-MCA as substrate by Dixon plot method

| SMILES | Ki [µM] |
| --- | --- |
| CC(=O)N[C@@H](CC(C)C)C(=O)N[C@@H](CC(C)C)C(=O)N[C@H](C=O)CCCNC(=N)N [LEUPEPTIN] | 0.024 |
| CC(=O)N[C@@H](CC(C)C)C(=O)N[C@@H](CC(C)C)C(=O)N[C@H]1CCCN2C(N)=NC(=N)N[C@@H]12 | 44 |
